Measured values published in US8871760B2, “[1,2,4]triazolo[3,4-C][1,4]oxazines as P2X7 modulators” (Roche Palo Alto LLC, priority 2009, dated 2014).

biological target: T1, human P2X7 (UniProt Q99572); test: Intracellular Calcium Flux (FLIPR) Assay; assay type: cell-based
T1 sequence (Q99572 1-595): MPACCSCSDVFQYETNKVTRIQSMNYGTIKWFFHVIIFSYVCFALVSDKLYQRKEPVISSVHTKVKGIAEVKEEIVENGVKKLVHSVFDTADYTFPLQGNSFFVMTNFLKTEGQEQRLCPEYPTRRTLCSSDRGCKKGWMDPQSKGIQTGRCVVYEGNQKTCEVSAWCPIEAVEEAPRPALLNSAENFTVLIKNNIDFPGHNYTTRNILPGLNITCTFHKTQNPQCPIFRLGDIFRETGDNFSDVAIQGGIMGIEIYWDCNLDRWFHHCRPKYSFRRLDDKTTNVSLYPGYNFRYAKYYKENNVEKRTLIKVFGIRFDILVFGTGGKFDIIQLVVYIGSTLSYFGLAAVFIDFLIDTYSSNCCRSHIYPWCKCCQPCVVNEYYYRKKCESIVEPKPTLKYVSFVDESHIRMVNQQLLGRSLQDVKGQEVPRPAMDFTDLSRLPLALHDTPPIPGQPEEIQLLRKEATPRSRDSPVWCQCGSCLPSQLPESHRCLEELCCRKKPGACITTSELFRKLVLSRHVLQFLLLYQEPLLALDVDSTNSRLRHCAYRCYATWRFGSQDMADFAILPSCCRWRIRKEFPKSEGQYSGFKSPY
Description: Intracellular Calcium Flux (FLIPR) Assay
Compound and Reagent Preparation
Stock solutions of compounds were prepared from powders as a 10 mM DMSO stock solution. These solutions were stored at RT during the two week period of these experiments to prevent freeze-thaw of the DMSO stocks. The DMSO stocks were added to the appropriate assay buffer at a concentration of 10 μM, and then diluted serially to the final concentrations that were tested. No observable precipitate was formed at any time during this process. The aqueous solutions of compounds as well as ATP (Sigma A7699) and BzATP (Sigma B6396) were prepared fresh for each day of experiment.
1321N1 cells stably expressing the full length human P2X7 gene (1321N1-hP2X7) and HEK293 cells stably expressing the full length rat P2X7 gene (HEK293-rP2X7) were obtained from the Roche Cell Culture Facility. 1321N1-hP2X7 cells were grown in Dulbecco's Modified Eagle's Medium (DMEM) high glucose supplemented with 10% FBS and […] G418. HEK293-rP2X7 cells were grown in DMEM/F-12 supplemented with 10% FBS, 1 mM CaCl2, 2 mM MgCl2, 2 mM L-Glutamine and […] G418. Cells were split such that they never became >70% confluent.
Intracellular Calcium Flux (FLIPR)
On the day prior to the experiment, 1321N1-hP2X7 or HEK293-rP2X7 cells were released into suspension with calcium-free PBS+Versene and washed by centrifugation with calcium-free PBS to remove the Versene. Cells were resuspended in growth medium at a density of 2.5×10^5 cells/mL and seeded into black walled, clear bottom 96 well plates (50,000 cells/well) approximately 18 hr prior to intracellular calcium flux experiments.
On the day of the experiment, plates were washed with FLIPR buffer (calcium- and magnesium-free Hank's Balanced Salt Solution (HBSS) supplemented with 10 mM Hepes, 2.5 mM probenecid and 2 mM calcium chloride) using a BIO-TEK 96 channel plate washer and incubated with […] fluo-3 dye at 37° C. for one hr. The dye was then removed by plate washing and the cells were allowed to equilibrate for 20 min at room temperature with antagonist or vehicle (FLIPR buffer). Agonist (100 μM BzATP final concentration for hP2X7; 5 μM BzATP final concentration or rP2X7) was added online with the FLIPR and fluorescence measurements made at 1 sec intervals for 60 sec followed by 3 sec intervals for a further 4 min (5 min total). A final addition of 5 μM ionomycin was made and the maximal BzATP-evoked fluorescence normalized to the maximal ionomycin-evoked fluorescence.

Q: How did the pIC50 turn out when `COc1cc(Br)c(Nc2nnc3n2C(c2ccccc2)CCC3)cc1OC` (stereo not drawn) [Compound 1, (2-Bromo-4,5-dimethoxy-phenyl)-(5-phenyl-5,6,7,8-tetrahydro-[1,2,4]triazolo[4,3-a]pyridin-3-yl)-amine] was run?
A: 7.25

Q: `CCc1c(Nc2nnc3n2C(c2ccc(F)cc2)CCC3)ccc2ncccc12` (stereo not drawn) [Compound 2, (5-Ethyl-quinolin-6-yl)-[5-(4-fluoro-phenyl)-5,6,7,8-tetrahydro-[1,2,4]triazolo[4,3-a]pyridin-3-yl]-amine] was tested. Which pIC50 did it give?
A: 7.52

Q: `COc1cc(C)c(Nc2nnc3n2[C@H](c2ccc(F)cc2)CCC3)cc1OC` [Compound 4, (4,5-Dimethoxy-2-methyl-phenyl)-[(S)-5-(4-fluoro-phenyl)-5,6,7,8-tetrahydro-[1,2,4]triazolo[4,3-a]pyridin-3-yl]-amine] was tested. Which pIC50 did it give?
A: 7.98

Q: With `COc1cc(Br)c(Nc2nnc3n2C(c2ccc(F)cc2)COC3)cc1OC` (stereo not drawn) [Compound 5, (2-Bromo-4,5-dimethoxy-phenyl)-[5-(4-fluoro-phenyl)-5,6-dihydro-8H-[1,2,4]triazolo[3,4-c][1,4]oxazin-3-yl]-amine] as the molecule, how does the pIC50 read?
A: 7.775

Q: With `Cc1cc(Cl)c(OCCO)cc1Nc1nnc2n1C(c1ccc(F)cc1)CCC2` (stereo not drawn) [Compound 6, 2-{2-Chloro-5-[5-(4-fluoro-phenyl)-5,6,7,8-tetrahydro-[1,2,4]triazolo[4,3-a]pyridin-3-ylamino]-4-methyl-phenoxy}-ethanol] as the molecule, how does the pIC50 read?
A: 6.99

Q: How did the pIC50 turn out when `COc1cc(Br)c(Nc2nnc3n2C(c2ccccc2)CC2(C3)OCCO2)cc1OC` (stereo not drawn) [Compound 7, (2-Bromo-4,5-dimethoxy-phenyl)-(7,7′-spiro-ethylenedioxy-5-phenyl-5,6,7,8-tetrahydro-[1,2,4]triazolo[4,3-a]pyridin-3-yl)-amine] was run?
A: 6.2

Q: `CCc1c(Nc2nnc3n2[C@H](c2ccc(F)cc2)CCC3)ccc2ncccc12` [Compound 8, (5-Ethyl-quinolin-6-yl)-[(S)-5-(4-fluoro-phenyl)-5,6,7,8-tetrahydro-[1,2,4]triazolo[4,3-a]pyridin-3-yl]-amine] was tested. Which pIC50 did it give?
A: 7.693

Q: How did the pIC50 turn out when `CCc1c(Nc2nnc3n2[C@@H](c2ccc(F)cc2)CCC3)ccc2ncccc12` [Compound 9, (5-Ethyl-quinolin-6-yl)-[(R)-5-(4-fluoro-phenyl)-5,6,7,8-tetrahydro-[1,2,4]triazolo[4,3-a]pyridin-3-yl]-amine] was run?
A: 5.17

Q: Which pIC50 does the source give for `COc1cc(Br)c(Nc2nnc3n2C(c2ccc(F)cc2)CSC3)cc1OC` (stereo not drawn) [Compound 10, (2-Bromo-4,5-dimethoxy-phenyl)-[5-(4-fluoro-phenyl)-5,6-dihydro-8H-[1,2,4]triazolo[3,4-c][1,4]thiazin-3-yl]-amine] here?
A: 7.625

Q: Which pIC50 does the source give for `Cc1ccc2ncccc2c1Nc1nnc2n1[C@H](c1ccccc1)COC2` [Compound 11, (6-Methyl-quinolin-5-yl)-((R)-5-phenyl-5,6-dihydro-8H-[1,2,4]triazolo[3,4-c][1,4]oxazin-3-yl)-amine] here?
A: 7.442

Q: How did the pIC50 turn out when `COc1cc(Br)c(Nc2nnc3n2[C@@H](c2ccc(F)cc2)COC3)cc1OC` [Compound 12, (2-Bromo-4,5-dimethoxy-phenyl)-[(S)-5-(4-fluoro-phenyl)-5,6-dihydro-8H-[1,2,4]triazolo[3,4-c][1,4]oxazin-3-yl]-amine] was run?
A: 5.1167

Q: Which pIC50 does the source give for `COc1cc(Br)c(Nc2nnc3n2[C@H](c2ccc(F)cc2)COC3)cc1OC` [Compound 13, (2-Bromo-4,5-dimethoxy-phenyl)-[(R)-5-(4-fluoro-phenyl)-5,6-dihydro-8H-[1,2,4]triazolo[3,4-c][1,4]oxazin-3-yl]-amine] here?
A: 7.75

Q: Which pIC50 does the source give for `Cc1cc(-c2ccc(C)c(Nc3nnc4n3[C@H](c3ccc(F)cc3)COC4)c2)n[nH]1` [Compound 14, [(R)-5-(4-Fluoro-phenyl)-5,6-dihydro-8H-[1,2,4]triazolo[3,4-c][1,4]oxazin-3-yl]-[2-methyl-5-(5-methyl-1H-pyrazol-3-yl)-phenyl]-amine] here?
A: 7.62

Q: For `Cc1cc(Cl)c(OCCO)cc1Nc1nnc2n1[C@H](c1ccc(F)cc1)CCC2` [Compound 15, 2-{2-Chloro-5-[(S)-5-(4-fluoro-phenyl)-5,6,7,8-tetrahydro-[1,2,4]triazolo[4,3-a]pyridin-3-ylamino]-4-methyl-phenoxy}-ethanol], which pIC50 is on record?
A: 7.133

Q: With `COc1cc(Br)c(Nc2nnc3n2C(c2ccc(F)cc2)C[S+]([O-])C3)cc1OC` (stereo not drawn) [Compound 16, (2-Bromo-4,5-dimethoxy-phenyl)-[5-(4-fluoro-phenyl)-7-oxo-5,6,7,8-tetrahydro-7λ^4-[1,2,4]triazolo[3,4-c][1,4]thiazin-3-yl]-amine] as the molecule, how does the pIC50 read?
A: 7.4167

Q: Which pIC50 does the source give for `COc1cc(Br)c(Nc2nnc3n2C(c2ccc(F)cc2)CNC3)cc1OC` (stereo not drawn) [Compound 17, (2-Bromo-4,5-dimethoxy-phenyl)-[5-(4-fluoro-phenyl)-5,6,7,8-tetrahydro-[1,2,4]triazolo[4,3-a]pyrazin-3-yl]-amine] here?
A: 7.3267

Q: For `Fc1cccc(C2COCc3nnc(Nc4cccc5ncccc45)n32)c1` (stereo not drawn) [Compound 20, [5-(3-Fluoro-phenyl)-5,6-dihydro-8H-[1,2,4]triazolo[3,4-c][1,4]oxazin-3-yl]-quinolin-5-yl-amine], which pIC50 is on record?
A: 6.987

Q: Which pIC50 does the source give for `Cc1cnn(-c2ccc(C)c(Nc3nnc4n3[C@H](c3ccc(F)cc3)COC4)c2)c1` [Compound 22, [(R)-5-(4-Fluoro-phenyl)-5,6-dihydro-8H-[1,2,4]triazolo[3,4-c][1,4]oxazin-3-yl]-[2-methyl-5-(4-methyl-pyrazol-1-yl)-phenyl]-amine] here?
A: 7.855

Q: How did the pIC50 turn out when `COc1cc(C)c(Nc2nnc3n2C(C)(c2ccc(F)cc2)COC3)cc1OC` (stereo not drawn) [Compound 23, (4,5-Dimethoxy-2-methyl-phenyl)-[5-(4-fluoro-phenyl)-5-methyl-5,6-dihydro-8H-[1,2,4]triazolo[3,4-c][1,4]oxazin-3-yl]-amine] was run?
A: 6.9

Q: `COc1cc(Br)c(Nc2nnc3n2C(c2ccc(F)cc2)CN(C(C)=O)C3)cc1OC` (stereo not drawn) [Compound 24, 1-[3-(2-Bromo-4,5-dimethoxy-phenylamino)-5-(4-fluoro-phenyl)-5,6-dihydro-8H-[1,2,4]triazolo[4,3-a]pyrazin-7-yl]-ethanone] was tested. Which pIC50 did it give?
A: 6.945

Q: For `Cc1ccc2ncccc2c1Nc1nnc2n1C(c1cccc(F)c1)COC2` (stereo not drawn) [Compound 25, [5-(3-Fluoro-phenyl)-5,6-dihydro-8H-[1,2,4]triazolo[3,4-c][1,4]oxazin-3-yl]-(6-methyl-quinolin-5-yl)-amine], which pIC50 is on record?
A: 7.735

Q: For `COc1cc(Br)c(Nc2nnc3n2C(c2ccc(F)cc2)CN(C)C3)cc1OC` (stereo not drawn) [Compound 26, (2-Bromo-4,5-dimethoxy-phenyl)-[5-(4-fluoro-phenyl)-7-methyl-5,6,7,8-tetrahydro-[1,2,4]triazolo[4,3-a]pyrazin-3-yl]-amine], which pIC50 is on record?
A: 7.32

Q: Which pIC50 does the source give for `Cc1ccc2c(Nc3nnc4n3[C@H](c3ccc(F)cc3)COC4)cccc2n1` [Compound 27, [(R)-5-(4-Fluoro-phenyl)-5,6-dihydro-8H-[1,2,4]triazolo[3,4-c][1,4]oxazin-3-yl]-(2-methyl-quinolin-5-yl)-amine] here?
A: 6.76

Q: With `C[C@H](CO)N1Cc2c(Nc3nnc4n3C(c3cccc(F)c3)COC4)ccc(Cl)c2C1=O` (stereo partly drawn) [Compound 28, 7-Chloro-4-[5-(3-fluoro-phenyl)-5,6-dihydro-8H-[1,2,4]triazolo[3,4-c][1,4]oxazin-3-ylamino]-2-((R)-2-hydroxy-1-methyl-ethyl)-2,3-dihydro-isoindol-1-one] as the molecule, how does the pIC50 read?
A: 5.625
